Experimental data taken from patent publication US10322138B2, “Treatment of depressive disorders” (Pherin Pharmaceuticals, Inc., priority 2012, dated 2019).
Like-named read-outs stand apart in the source and are kept apart here.

Experiments:
[1] = test system: individuals diagnosed with MDD and insomnia; conditions: cited from earlier work
progestin receptors = progestin receptors (Homo sapiens, UniProt P06401); experiment: In vitro agonist/antagonist activity on steroid receptors
dogs [2] = experiment: 28-day intranasal toxicity; assay type: in vivo, dog; conditions: intranasal up to 300 μg/day for 28 days
[3] = test system: isolated human nasal chemosensory neurons; experiment: Electrophysiology: inward currents in isolated nasal chemosensory neurons; assay type: cell-based
mice of both sexes = experiment: Intraperitoneal toxicity, 7-day observation; assay type: in vivo; conditions: intraperitoneal up to 200 mg/Kg
glucocorticoid receptors = glucocorticoid receptors (Homo sapiens, UniProt P04150); experiment: In vitro agonist/antagonist activity on steroid receptors
[4] = assay type: in vivo; conditions: rat, repeated intranasal doses at 10 mg/Kg
[5] = test system: healthy volunteers of both sexes; experiment: Pilot trials, nasal administration; assay type: in vivo, human
[6] = test system: nasal septal chemosensory epithelium; experiment: Electrophysiology: electrotonic depolarization of chemosensory epithelium; assay type: cell-based, human
dogs [7] = experiment: Intranasal and intravenous toxicity up to 2.5 mg/Kg; assay type: in vivo, dog; conditions: intranasal and intravenous up to 2.5 mg/Kg
rabbits = experiment: as above; assay type: in vivo, rabbit; conditions: intranasal and intravenous up to 2.5 mg/Kg
[8] = test system: individuals meeting the diagnostic criteria for MDD; experiment: Phase 2 three-arm, double-blind, randomized trial in MDD; assay type: in vivo, human; conditions: for decrease in average HRSD-17 score from baseline (standard deviation): eight weeks of treatment; for Cohen's d relative to placebo, HRSD-17 item 4 / Cohen's d relative to placebo, HRSD-17 score / decrease in HRSD-17 item 4 (initial insomnia) from baseline: eight weeks
Protocol: In a Phase 2 three-arm, double-blind, randomized trial, individuals received either placebo (a nasal solution containing no pregn-4-en-20-yn-3-one), 3200 ng/day of pregn-4-en-20-yn-3-one (“low dose”), or 6400 ng/day of pregn-4-en-20-yn-3-one (“high dose”), formulated and administered as in the Phase 1 trial. The placebo group and the low dose group administered two sprays per nostril twice/day, the high dose group administered two sprays per nostril four times/day. The trial enrolled 30 individuals, male and female between 18 and 60 years old, meeting the diagnostic criteria for MDD and free of any other Axis I diagnosis according to the DSM-IV-TR, non-suicidal, and not taking any central nervous system medications (including natural products such as St. John's wort). The individuals were required to have a minimum score on the Hamilton Rating Scale for Depression (HRSD-17), a 17-item scale designed for completion by a health professional following a structured interview with the individual, of at least 17, meaning that they were at least moderately depressed; and the primary efficacy criterion in the trial was reduction in HRSD-17 score from baseline.
The trial included ten weekly visits. At the first (screening) visit, the individuals were assessed for depression symptoms and randomized into treatment groups. […] At the second (baseline) visit, they were assessed, trained in self-administration of the nasal spray, and began self-administration of their trial medication. There were seven visits at which they were assessed while on treatment with their trial medication; and one follow-up visit one week after the end of medication administration at which they were given final assessments.
[Cohen's d is the mean difference between groups divided by the pooled standard deviation. For behavioral measures, a Cohen's d of 0.2 represents a small treatment effect; 0.5, a medium treatment effect; and 0.8, a large treatment effect.] […] HRSD-17 item 4 measures initial insomnia (difficulty in falling asleep early in the night), and is scored 0, for no difficulty falling asleep; 1, for complaints of occasional difficulty falling asleep, i.e. more than ½ hour; and 2, complaints of nightly difficulty falling asleep.

mice = experiment: Intranasal and intravenous toxicity up to 2.5 mg/Kg; assay type: in vivo, mouse; conditions: intranasal and intravenous up to 2.5 mg/Kg
androgen receptors = androgen receptors (Homo sapiens, UniProt P10275); experiment: In vitro agonist/antagonist activity on steroid receptors
[9] = Ames reverse mutation assay
healthy individuals = experiment: Phase 1 open-label, flexible dose-escalation trial; assay type: in vivo, human
Protocol: In a Phase 1 open-label, flexible dose-escalation trial, the pregn-4-en-20-yn-3-one was formulated as an aqueous solution at 8 μg/mL, with 2% propylene glycol and 2% ethanol, and was administered with a Valois intranasal metered spray pump delivering 50 μL, so that the pregn-4-en-20-yn-3-one was administered at 400 ng/spray. The low-dose group received 400, 400, 1600, 1600, 2800, and 2800 ng/day over the six-day period of the trial, while the high-dose group received 4000, 4000, 5200, 5200, 6400, and 6400 ng/day over the six-day period of the trial. The trial enrolled 10 individuals, 7 male and 3 female, between 21 and 38 years old, healthy, free of any Axis I diagnosis according to the DSM-IV-TR, and not taking any central nervous system medications.

pregnant rats = experiment: Reproductive toxicity study; assay type: in vivo, rat; conditions: intravenous doses up to 2.5 mg/Kg/day during organogenesis
[10] = test system: receptors of indoleamine, monoamines, ion channels, receptors, peptides, opioid, glutamate neurotransmitter, steroid hormones, or glucocorticoid receptors; experiment: In vitro receptor affinity panel; assay type: binding
pregnant rabbits = experiment: Reproductive toxicity study; assay type: in vivo, rabbit; conditions: intravenous doses up to 2.5 mg/Kg/day during organogenesis
rats [11] = experiment: Intranasal and intravenous toxicity up to 2.5 mg/Kg; assay type: in vivo, rat; conditions: intranasal and intravenous up to 2.5 mg/Kg
rats [12] = experiment: One-month intranasal toxicity; assay type: in vivo, rat; conditions: intranasal up to 50 μg/day for one month
estrogen receptors = experiment: In vitro agonist/antagonist activity on steroid receptors
rats of both sexes = assay type: in vivo; conditions: intravenous 1 mg/Kg
bone marrow = experiment: In vivo bone marrow micronucleus test
[13] = escitalopram plus cognitive behavioral therapy for insomnia
[14] = escitalopram plus control quasi-desensitization therapy
[15] = Phase 1, intranasal 400-6400 ng/day over six days

Chain of androgen receptors (P10275 whole entry): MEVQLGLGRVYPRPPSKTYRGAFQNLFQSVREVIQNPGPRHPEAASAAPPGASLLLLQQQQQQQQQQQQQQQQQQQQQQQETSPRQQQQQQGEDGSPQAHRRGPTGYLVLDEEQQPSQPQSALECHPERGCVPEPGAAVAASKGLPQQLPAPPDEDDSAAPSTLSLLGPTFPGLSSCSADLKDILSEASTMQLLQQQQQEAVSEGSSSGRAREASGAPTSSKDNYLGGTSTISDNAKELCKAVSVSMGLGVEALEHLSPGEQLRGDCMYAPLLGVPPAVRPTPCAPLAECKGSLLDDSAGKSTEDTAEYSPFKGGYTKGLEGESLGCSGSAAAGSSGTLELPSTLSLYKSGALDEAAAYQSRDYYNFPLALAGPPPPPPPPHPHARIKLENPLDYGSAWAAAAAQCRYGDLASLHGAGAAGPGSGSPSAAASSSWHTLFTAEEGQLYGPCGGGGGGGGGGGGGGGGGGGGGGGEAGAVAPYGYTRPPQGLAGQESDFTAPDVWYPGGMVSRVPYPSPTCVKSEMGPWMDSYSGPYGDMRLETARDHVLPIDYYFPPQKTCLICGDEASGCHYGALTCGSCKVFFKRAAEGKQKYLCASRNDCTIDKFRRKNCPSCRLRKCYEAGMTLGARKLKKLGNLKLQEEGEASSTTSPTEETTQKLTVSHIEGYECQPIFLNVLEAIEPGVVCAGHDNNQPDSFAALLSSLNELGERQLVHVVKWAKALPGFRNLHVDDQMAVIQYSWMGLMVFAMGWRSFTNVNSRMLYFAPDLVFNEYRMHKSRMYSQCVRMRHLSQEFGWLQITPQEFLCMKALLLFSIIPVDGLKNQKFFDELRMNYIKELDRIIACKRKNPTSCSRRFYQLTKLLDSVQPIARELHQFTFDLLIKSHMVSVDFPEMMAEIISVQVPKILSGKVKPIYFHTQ
Chain of progestin receptors (P06401 whole entry): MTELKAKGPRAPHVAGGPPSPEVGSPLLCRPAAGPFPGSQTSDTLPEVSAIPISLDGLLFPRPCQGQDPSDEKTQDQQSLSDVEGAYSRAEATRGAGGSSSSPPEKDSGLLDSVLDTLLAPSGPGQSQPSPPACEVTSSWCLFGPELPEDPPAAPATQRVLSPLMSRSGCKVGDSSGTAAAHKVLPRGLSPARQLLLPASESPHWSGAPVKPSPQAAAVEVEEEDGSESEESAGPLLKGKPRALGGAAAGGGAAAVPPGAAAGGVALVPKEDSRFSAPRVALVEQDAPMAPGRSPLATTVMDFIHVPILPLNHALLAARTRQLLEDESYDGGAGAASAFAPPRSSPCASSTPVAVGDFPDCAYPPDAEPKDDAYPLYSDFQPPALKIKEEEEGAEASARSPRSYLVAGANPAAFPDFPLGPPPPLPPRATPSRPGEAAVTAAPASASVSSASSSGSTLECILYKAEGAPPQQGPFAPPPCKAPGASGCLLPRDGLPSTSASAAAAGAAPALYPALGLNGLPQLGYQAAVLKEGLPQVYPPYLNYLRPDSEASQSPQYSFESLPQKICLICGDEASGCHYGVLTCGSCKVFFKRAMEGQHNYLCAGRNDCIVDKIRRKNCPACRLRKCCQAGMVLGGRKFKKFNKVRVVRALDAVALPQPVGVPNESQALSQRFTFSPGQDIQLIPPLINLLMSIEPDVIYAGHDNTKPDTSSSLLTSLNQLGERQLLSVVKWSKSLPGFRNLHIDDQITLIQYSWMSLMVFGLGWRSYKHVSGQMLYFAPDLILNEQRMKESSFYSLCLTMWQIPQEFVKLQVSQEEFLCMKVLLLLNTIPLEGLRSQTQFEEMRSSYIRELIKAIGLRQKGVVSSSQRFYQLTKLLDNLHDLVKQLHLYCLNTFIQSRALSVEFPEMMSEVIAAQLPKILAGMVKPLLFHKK
Chain of glucocorticoid receptors (P04150 whole entry): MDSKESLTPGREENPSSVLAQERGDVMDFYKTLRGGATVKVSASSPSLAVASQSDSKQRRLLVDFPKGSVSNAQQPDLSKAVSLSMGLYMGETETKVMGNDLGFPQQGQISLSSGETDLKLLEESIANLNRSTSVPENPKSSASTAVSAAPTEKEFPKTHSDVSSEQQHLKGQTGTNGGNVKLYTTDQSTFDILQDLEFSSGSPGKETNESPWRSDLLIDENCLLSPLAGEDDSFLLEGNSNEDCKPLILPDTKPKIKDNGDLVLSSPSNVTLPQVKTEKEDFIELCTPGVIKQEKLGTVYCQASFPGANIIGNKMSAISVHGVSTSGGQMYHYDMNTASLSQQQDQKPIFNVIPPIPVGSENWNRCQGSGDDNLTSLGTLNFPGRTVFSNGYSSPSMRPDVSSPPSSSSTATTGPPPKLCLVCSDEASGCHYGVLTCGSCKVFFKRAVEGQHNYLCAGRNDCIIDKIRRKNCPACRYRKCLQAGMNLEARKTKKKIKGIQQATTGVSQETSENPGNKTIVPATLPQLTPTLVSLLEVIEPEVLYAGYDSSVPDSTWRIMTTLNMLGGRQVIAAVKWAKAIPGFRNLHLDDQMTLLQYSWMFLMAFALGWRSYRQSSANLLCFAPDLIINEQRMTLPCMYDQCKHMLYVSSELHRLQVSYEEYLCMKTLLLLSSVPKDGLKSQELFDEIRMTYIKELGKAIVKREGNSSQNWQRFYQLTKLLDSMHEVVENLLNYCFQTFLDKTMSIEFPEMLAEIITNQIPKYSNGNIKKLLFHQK

CN(C)CCC[C@@]1(c2ccc(F)cc2)OCc2cc(C#N)ccc21 [escitalopram]
rate of remission of the depression [1, 13]: 61.5%
remission of insomnia [1, 13]: 50.0%
rate of remission of the depression [1, 14]: 33.3%
remission of insomnia [1, 14]: 7.7%

C#C[C@H]1CC[C@H]2[C@@H]3CCC4=CC(=O)CC[C@]4(C)[C@H]3CC[C@]12C [pregn-4-en-20-yn-3-one, Pregn-4-en-20-yn-3-one]
agonist or antagonist activity (progestin receptors): no agonist or antagonist activity
deaths, adverse clinical signs, laboratory or pathology parameters (dogs [2]): no deaths or adverse clinical signs or effects on the laboratory or pathology parameters
inward currents in isolated human nasal chemosensory neurons [3]: induced inward currents
concentration of maximal response (amplitude) ([3]; amplitude increased depending on concentration): 10^−7 to 10^−5 M
macroscopic or microscopic changes in organs (mice of both sexes): no macroscopic or microscopic changes
mortality or adverse symptoms (mice of both sexes; 7-day period): no mortality or adverse symptoms
agonist or antagonist activity (glucocorticoid receptors): no agonist or antagonist activity
systemic exposure [4]: very low systemic exposure (below the limit of accurate quantitation)
change in heart rate ([5]; intranasal): did not produce statistically significant change
change in respiratory rate ([5]; intranasal): did not produce statistically significant change
duration of the QTC intervals of the electrocardiogram ([5]; intranasal): did not change
effect on alpha and beta frequency bands of electroencephalogram ([5]; intranasal): did not have significant effect
effect on body temperature ([5]; intranasal): did not have significant effect
frequency of electrodermal activity events (skin conductance) ([5]; intranasal): did significantly increase
tolerability ([5]; nasal administration): well tolerated
electrotonic depolarization of the nasal septal chemosensory epithelium [6]: electrotonic depolarization
deaths, adverse clinical signs, physiological changes, clinical laboratory parameters (dogs [7]): no deaths or adverse clinical signs, no physiological changes, or changes in clinical laboratory parameters
deaths, adverse clinical signs, physiological changes, clinical laboratory parameters (rabbits): no deaths or adverse clinical signs, no physiological changes, or changes in clinical laboratory parameters
serious adverse events ([8]; Phase 2, any of the groups): no serious adverse events reported
decrease in average HRSD-17 score from baseline (standard deviation) ([8]; high dose 6400 ng/day intranasal): 18.6 (8.7)
Cohen's d relative to placebo, HRSD-17 item 4 ([8]; high dose 6400 ng/day): 1.60
Cohen's d relative to placebo, HRSD-17 score ([8]; high dose 6400 ng/day): 0.82
decrease in HRSD-17 item 4 (initial insomnia) from baseline ([8]; high dose 6400 ng/day): 1.4 (0.25)
decrease in average HRSD-17 score from baseline (standard deviation) ([8]; low dose 3200 ng/day intranasal): 18.3 (7.7)
Cohen's d relative to placebo, HRSD-17 item 4 ([8]; low dose 3200 ng/day): 0.39
Cohen's d relative to placebo, HRSD-17 score ([8]; low dose 3200 ng/day): 0.86
decrease in HRSD-17 item 4 (initial insomnia) from baseline ([8]; low dose 3200 ng/day): 0.6 (0.3)
time to effect on a depressive disorder or its symptoms ([8]; nasal administration): ≤ 1 week
deaths, adverse clinical signs, physiological changes, clinical laboratory parameters (mice): no deaths or adverse clinical signs, no physiological changes, or changes in clinical laboratory parameters
agonist or antagonist activity (androgen receptors): no agonist or antagonist activity
mutagenic or clastogenic potential [9]: no evidence of mutagenic or clastogenic potential
differences in clinical laboratory values, neuropsychological functioning, brain activity between doses or visits (healthy individuals; Phase 1): No statistically significant differences
differences in safety parameters between the three doses of each treatment group (healthy individuals; Phase 1): no statistically significant differences
most frequent adverse events (healthy individuals; [15]): increased appetite, and dizziness in the high dose group
serious adverse events (healthy individuals; [15]): no serious adverse events
adverse effects on maternal or litter parameters (pregnant rats): no adverse effects on maternal or litter parameters
affinity for receptors [10]: nor was there any affinity
adverse effects on maternal or litter parameters (pregnant rabbits): no adverse effects on maternal or litter parameters
deaths, adverse clinical signs, physiological changes, clinical laboratory parameters (rats [11]): no deaths or adverse clinical signs, no physiological changes, or changes in clinical laboratory parameters
deaths, adverse clinical signs, laboratory or pathology parameters (rats [12]): no deaths or adverse clinical signs or effects on laboratory or pathology parameters
agonist or antagonist activity (estrogen receptors): no agonist or antagonist activity
pathological changes (rats of both sexes): no pathological changes
changes in behavior (rats of both sexes; 8-day period): no changes in behavior
mutagenic or clastogenic potential (bone marrow): no evidence of mutagenic or clastogenic potential
